Laboratory results published in ChEMBL document CHEMBL4419163, “Assays for identifying compounds that modulate bitter taste” (2014).

Legend:
Assay type in all cases: functional, cell-based
[1] = target: T1, Taste receptor type 2 member 38 (Homo sapiens) (UniProt P59533); test: Agonist activity at human TAS2R38 expressed in HEK293T cells co-expressing Galpha15 assessed as increase in intracellular calcium level at 20 mM by Calcium-3 dye based fluorescence assay relative to control
T1 sequence (whole entry): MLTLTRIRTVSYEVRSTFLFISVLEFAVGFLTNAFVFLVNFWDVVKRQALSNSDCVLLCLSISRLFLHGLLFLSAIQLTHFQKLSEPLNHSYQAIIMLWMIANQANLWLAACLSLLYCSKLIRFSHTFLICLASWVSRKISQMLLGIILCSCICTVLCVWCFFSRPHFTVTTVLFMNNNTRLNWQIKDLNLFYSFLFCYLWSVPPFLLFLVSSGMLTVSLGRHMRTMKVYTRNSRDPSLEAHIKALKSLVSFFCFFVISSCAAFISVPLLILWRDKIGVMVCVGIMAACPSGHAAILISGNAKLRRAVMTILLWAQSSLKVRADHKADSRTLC

[2] = target: T2, Taste receptor type 2 member 7 (Homo sapiens) (UniProt Q9NYW3); test: Agonist activity at human TAS2R7 expressed in HEK293T cells co-expressing Galpha15 assessed as increase in intracellular calcium level at 20 mM by Calcium-3 dye based fluorescence assay relative to control
T2 sequence (whole entry): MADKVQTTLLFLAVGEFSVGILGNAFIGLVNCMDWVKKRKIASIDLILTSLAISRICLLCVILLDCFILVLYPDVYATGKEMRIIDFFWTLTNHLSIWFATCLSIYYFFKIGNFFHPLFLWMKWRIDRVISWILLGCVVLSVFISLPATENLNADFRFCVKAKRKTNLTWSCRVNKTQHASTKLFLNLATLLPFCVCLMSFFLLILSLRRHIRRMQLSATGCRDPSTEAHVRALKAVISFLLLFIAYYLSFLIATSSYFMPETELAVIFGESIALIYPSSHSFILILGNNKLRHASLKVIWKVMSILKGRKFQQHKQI

[3] = target: T3, Taste receptor type 2 member 31 (Homo sapiens) (UniProt P59538); test: Agonist activity at human TAS2R44 expressed in HEK293T cells co-expressing Galpha15 assessed as increase in intracellular calcium level at 20 mM by Calcium-3 dye based fluorescence assay relative to control
T3 sequence (whole entry): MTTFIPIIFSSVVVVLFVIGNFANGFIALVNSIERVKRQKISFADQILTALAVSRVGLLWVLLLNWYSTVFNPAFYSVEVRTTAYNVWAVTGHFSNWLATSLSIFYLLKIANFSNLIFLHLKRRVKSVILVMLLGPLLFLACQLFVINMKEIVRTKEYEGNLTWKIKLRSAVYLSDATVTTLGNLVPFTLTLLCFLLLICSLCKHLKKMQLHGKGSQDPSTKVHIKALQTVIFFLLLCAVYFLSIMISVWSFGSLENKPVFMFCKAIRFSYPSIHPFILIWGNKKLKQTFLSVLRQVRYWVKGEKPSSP

[4] = target: T4, Taste receptor type 2 member 16 (Homo sapiens) (UniProt Q9NYV7); test: Agonist activity at human TAS2R16 expressed in HEK293T cells co-expressing Galpha15 assessed as increase in intracellular calcium level at 20 mM by Calcium-3 dye based fluorescence assay relative to control
T4 sequence (whole entry): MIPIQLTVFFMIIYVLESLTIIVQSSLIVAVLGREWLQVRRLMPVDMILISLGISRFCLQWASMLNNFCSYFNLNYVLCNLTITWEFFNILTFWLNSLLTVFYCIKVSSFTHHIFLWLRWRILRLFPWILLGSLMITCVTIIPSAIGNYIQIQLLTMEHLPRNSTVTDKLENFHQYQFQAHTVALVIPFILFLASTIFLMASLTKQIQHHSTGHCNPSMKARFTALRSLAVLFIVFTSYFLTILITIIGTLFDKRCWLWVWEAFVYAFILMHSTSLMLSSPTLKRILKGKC

[5] = target: T5, Taste receptor type 2 member 13 (Homo sapiens) (UniProt Q9NYV9); test: Agonist activity at human TAS2R13 expressed in HEK293T cells co-expressing Galpha15 assessed as increase in intracellular calcium level at 20 mM by Calcium-3 dye based fluorescence assay relative to control
T5 sequence (whole entry): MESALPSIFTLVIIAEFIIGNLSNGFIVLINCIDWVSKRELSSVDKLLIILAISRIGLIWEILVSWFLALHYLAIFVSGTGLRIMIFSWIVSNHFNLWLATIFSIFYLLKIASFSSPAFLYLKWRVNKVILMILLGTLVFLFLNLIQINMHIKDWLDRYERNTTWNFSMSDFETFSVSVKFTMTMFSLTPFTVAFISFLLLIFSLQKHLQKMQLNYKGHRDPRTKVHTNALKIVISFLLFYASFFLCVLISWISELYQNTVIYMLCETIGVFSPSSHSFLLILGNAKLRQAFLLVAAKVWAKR

[6] = target: T6, Taste receptor type 2 member 41 (Homo sapiens) (UniProt P59536); test: Agonist activity at human TAS2R41 expressed in HEK293T cells co-expressing Galpha15 assessed as increase in intracellular calcium level at 20 mM by Calcium-3 dye based fluorescence assay relative to control
T6 sequence (whole entry): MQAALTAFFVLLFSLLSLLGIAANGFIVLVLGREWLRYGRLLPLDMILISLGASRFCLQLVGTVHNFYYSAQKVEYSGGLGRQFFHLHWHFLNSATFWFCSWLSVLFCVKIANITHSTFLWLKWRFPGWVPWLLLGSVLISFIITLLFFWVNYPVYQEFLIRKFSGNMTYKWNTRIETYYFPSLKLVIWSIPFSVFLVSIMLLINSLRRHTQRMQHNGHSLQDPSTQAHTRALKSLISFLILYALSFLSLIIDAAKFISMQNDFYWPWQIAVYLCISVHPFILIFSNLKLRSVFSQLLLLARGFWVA

[7] = target: Taste receptor type 2 member 40 (Homo sapiens) (UniProt P59535); test: Agonist activity at human TAS2R40 expressed in HEK293T cells co-expressing Galpha15 assessed as increase in intracellular calcium level at 20 mM by Calcium-3 dye based fluorescence assay relative to control
[8] = target: T7, Taste receptor type 2 member 14 (Homo sapiens) (UniProt Q9NYV8); test: Agonist activity at human TAS2R14 expressed in HEK293T cells co-expressing Galpha15 assessed as increase in intracellular calcium level at 20 mM by Calcium-3 dye based fluorescence assay relative to control
T7 sequence (whole entry): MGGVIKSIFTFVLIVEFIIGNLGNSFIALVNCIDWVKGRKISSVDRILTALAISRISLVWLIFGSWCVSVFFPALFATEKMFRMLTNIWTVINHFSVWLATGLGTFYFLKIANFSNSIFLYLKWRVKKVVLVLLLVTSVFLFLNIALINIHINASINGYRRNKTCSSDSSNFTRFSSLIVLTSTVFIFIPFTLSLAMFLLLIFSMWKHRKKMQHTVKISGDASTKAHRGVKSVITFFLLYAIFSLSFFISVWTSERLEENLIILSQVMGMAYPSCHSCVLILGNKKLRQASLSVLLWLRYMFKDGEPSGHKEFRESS

Sequence of Taste receptor type 2 member 40 (Homo sapiens) (P59535 whole entry): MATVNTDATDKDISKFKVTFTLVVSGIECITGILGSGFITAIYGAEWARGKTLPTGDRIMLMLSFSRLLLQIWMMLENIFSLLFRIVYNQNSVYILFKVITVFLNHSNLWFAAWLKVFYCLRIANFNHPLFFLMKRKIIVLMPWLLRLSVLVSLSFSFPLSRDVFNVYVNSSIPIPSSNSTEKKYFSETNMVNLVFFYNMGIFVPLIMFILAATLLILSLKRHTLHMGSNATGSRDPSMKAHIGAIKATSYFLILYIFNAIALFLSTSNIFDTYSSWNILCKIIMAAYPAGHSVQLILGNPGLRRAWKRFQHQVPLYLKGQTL

Row | Activity [1] | Activity [2] | Activity [3] | Activity [4] | Activity [5] | Activity [6] | Activity [7] | Activity [8] | Structure (SMILES)
1 | < 40% | < 40% | > 40% | < 40% | > 40% | < 40% | < 40% | > 40% | [Cl-].[K+] [POTASSIUM CHLORIDE]
2 | < 40% | < 40% | > 40% | < 40% | > 40% | < 40% | < 40% | > 40% | CC(O)C(=O)[O-].[K+] (centres undefined)
3 | < 40% | < 40% | > 40% | > 40% | > 40% | < 40% | < 40% | > 40% | CC1=CC(=O)NS(=O)(=O)O1
